“And” between values parts separate entries of the source, which are not always exact repeats. Identical values can stand only once.
Legend:
[1] = test system: B/T-ALL cell lines (BV-173, SUP-B15, REH, NALM-6, NALM-19, MOLT-4, RPMI-8402, CCRF-CEM); test: Gene expression profiling (Affymetrix GeneChip Human Gene 1.0 ST); format: cell-based
Procedure: In order to identify gene expression changes specifically correlated with Chk1 inhibition and to better elucidate the mechanism of action of Chk1 inhibitor, gene expression profiling (GEP) analysis was performed by microarray on treated B/T-ALL cell lines (BV-173, SUP-B15, REH, NALM-6, NALM-19, MOLT-4, RPMI-8402, and CCRF-CEM) and on their untreated counterparts (DMSO 0.1 %) after 24 h of drug exposure. […] To identify peculiar critical pathways affected by Chk1 inhibition, the differentially expressed genes were analyzed in terms of biological function using the MetaCore pathway mapping software (GeneGo Inc.) which categorizes genes in pathway maps, Gene Ontology (GO) cellular processes, and cellular and molecular process networks. Consistent with a Chk1’s mechanism of action, the three top scored maps (map with the lowest p value) were “cell cycle: estrogen receptor 1 (ESR1) regulation of G1/S transition” including c-Jun/c-Fos, cyclin A, CARM1, Skp2/TrCP/FBXW, SKP2, c-Fos, CDK4, NCOA3, c-Jun, and CDK2 genes (Additional file 1: Figure S5); “apoptosis and survival: granzyme A signaling” including PHAP1, Ku70/80, Ku80, Ku70, histone H3, NDPK A, SET, histone H2B, and histone H1 genes (Additional file 1: Figure S6); and “DNA damage: ATM/ATR regulation of G1/S checkpoint” including PCNA, growth arrest and DNA damage 45 alpha (GADD45a), Chk2, cyclin A, NF-kB, cyclin-dependent kinase 4 (CDK4), FANCD2, Claspin, and CDK2 genes (Additional file 1: Figure S7). GO cellular processes highlighted 617 genes involved in cellular metabolic process (Additional file 3). Finally, the three top scored process networks impaired by the treatment with Chk1 inhibitor were as follows: the DNA damage checkpoint, the S phase of cell cycle, and the apoptosis, confirming the specificity of treatment on its target pathways (Additional file 4). […] Due to its implication in the regulation of the cell cycle and apoptosis, Western blot analysis against c-Jun was performed to better comprehend its biological role in response to PF-00477736. c-Jun is a component of the transcription factor activating protein-1 (AP-1) which is involved in cell cycle progression through the G1 phase by the regulation of the cyclin D1 [28]. […] The data found in the gene expression profile analysis were validated using qPCR.
Gene expression profiling on treated and untreated cells (DMSO 0.1 %) after 24 h of exposure to PF-0077736 was performed using Affymetrix GeneChip Human Gene 1.0 ST platform (Affymetrix Inc. Santa Clara, CA, USA) and following manufacturers’ instructions. Raw data were normalized by using the RMA algorithm and filtered. Genes differentially expressed were selected by analysis of variance (ANOVA) (p value threshold =0.05) using the Partek Genomics Suite software (Partek Incorporated Saint Louis, MO, USA; http://www.partek.com).

[2] = test system: c-Jun in B-/T-ALL cell lines; test: Western blot against c-Jun; format: cell-based, human; settings: after treatment; response heterogeneous in T-ALL cell lines
Procedure: In order to identify gene expression changes specifically correlated with Chk1 inhibition and to better elucidate the mechanism of action of Chk1 inhibitor, gene expression profiling (GEP) analysis was performed by microarray on treated B/T-ALL cell lines (BV-173, SUP-B15, REH, NALM-6, NALM-19, MOLT-4, RPMI-8402, and CCRF-CEM) and on their untreated counterparts (DMSO 0.1 %) after 24 h of drug exposure. […] To identify peculiar critical pathways affected by Chk1 inhibition, the differentially expressed genes were analyzed in terms of biological function using the MetaCore pathway mapping software (GeneGo Inc.) which categorizes genes in pathway maps, Gene Ontology (GO) cellular processes, and cellular and molecular process networks. […] Finally, the three top scored process networks impaired by the treatment with Chk1 inhibitor were as follows: the DNA damage checkpoint, the S phase of cell cycle, and the apoptosis, confirming the specificity of treatment on its target pathways (Additional file 4). […]
To gain insight into the molecular mechanisms responsible for cell death following treatment, functional analyses by Western blot were performed. […] Finally, all these antibodies were detected using the enhanced chemiluminescence kit ECL (GE) and the compact darkroom ChemiDoc-It (UVP).

Cn1cc(-c2[nH]c3cc(NC(=O)[C@H](N)C4CCCCC4)cc4c3c2C=NNC4=O)cn1 [PF-00477736]
Fold-Change (PF-00477736 vs. DMSO), SESN2 ([1]; transcript ID 7899436, 24 h, up-regulated): 2.221 | Fold-Change (PF-00477736 vs. DMSO), RNU11 ([1]; transcript ID 7899502, 24 h, up-regulated): 2.283 | Fold-Change (PF-00477736 vs. DMSO), GADD45A ([1]; transcript ID 7902227, 24 h, up-regulated): 2.163 | Fold-Change (PF-00477736 vs. DMSO), HIST2H4A ([1]; transcript ID 7905067, 24 h, up-regulated): 3.531 | Fold-Change (PF-00477736 vs. DMSO), BTG2 ([1]; transcript ID 7908917, 24 h, up-regulated): 2.0536 | Fold-Change (PF-00477736 vs. DMSO), ATF3 ([1]; transcript ID 7909610, 24 h, up-regulated): 2.764 | Fold-Change (PF-00477736 vs. DMSO), JUN ([1]; transcript ID 7916609, 24 h, up-regulated): 5.3469 | Fold-Change (PF-00477736 vs. DMSO), HIST2H2BF ([1]; transcript ID 7919584, 24 h, up-regulated): 2.188 | Fold-Change (PF-00477736 vs. DMSO), HIST2H2BF ([1]; transcript ID 7919606, 24 h, up-regulated): 2.022 | Fold-Change (PF-00477736 vs. DMSO), HIST2H4A ([1]; transcript ID 7919627, 24 h, up-regulated): 3.531 | Fold-Change (PF-00477736 vs. DMSO), RGS16 ([1]; transcript ID 7922717, 24 h, up-regulated): 2.4 | Fold-Change (PF-00477736 vs. DMSO), NFKB2 ([1]; transcript ID 7930074, 24 h, up-regulated): 2.262 | Fold-Change (PF-00477736 vs. DMSO), KLF6 ([1]; transcript ID 7931810, 24 h, up-regulated): 2.17 and 2.174 | Fold-Change (PF-00477736 vs. DMSO), BNIP3 ([1]; transcript ID 7937079, 24 h, down-regulated): -2.2734 | Fold-Change (PF-00477736 vs. DMSO), BEST1 ([1]; transcript ID 7940582, 24 h, up-regulated): 2.3629 | Fold-Change (PF-00477736 vs. DMSO), TCP11L2 ([1]; transcript ID 7958262, 24 h, up-regulated): 2.209 | Fold-Change (PF-00477736 vs. DMSO), CD69 ([1]; transcript ID 7961075, 24 h, up-regulated): 3.17 | Fold-Change (PF-00477736 vs. DMSO), RND1 ([1]; transcript ID 7962884, 24 h, up-regulated): 2.096 | Fold-Change (PF-00477736 vs. DMSO), DDIT3 ([1]; transcript ID 7964460, 24 h, up-regulated): 3.32 and 3.325 | Fold-Change (PF-00477736 vs. DMSO), FOS ([1]; transcript ID 7975779, 24 h, up-regulated): 2.40 and 2.404 | Fold-Change (PF-00477736 vs. DMSO), CHAC1 ([1]; transcript ID 7982868, 24 h, up-regulated): 2.1 | Fold-Change (PF-00477736 vs. DMSO), MAP1LC3B ([1]; transcript ID 7997740, 24 h, up-regulated): 2.05 | Fold-Change (PF-00477736 vs. DMSO), ALDOC ([1]; transcript ID 8013660, 24 h, down-regulated): -2.184 | Fold-Change (PF-00477736 vs. DMSO), ROCK1P1 ([1]; transcript ID 8019804, 24 h, up-regulated): 2.468 | Fold-Change (PF-00477736 vs. DMSO), PPP1R15A ([1]; transcript ID 8030128, 24 h, up-regulated): 2.884 | Fold-Change (PF-00477736 vs. DMSO), TRIB3 ([1]; transcript ID 8060344, 24 h, up-regulated): 2.719 | Fold-Change (PF-00477736 vs. DMSO), CEBPB ([1]; transcript ID 8063386, 24 h, up-regulated): 2.112 | Fold-Change (PF-00477736 vs. DMSO), NFKBIZ ([1]; transcript ID 8081386, 24 h, up-regulated): 2.098 | Fold-Change (PF-00477736 vs. DMSO), IL8 ([1]; transcript ID 8095680, 24 h, up-regulated): 2.299 | Fold-Change (PF-00477736 vs. DMSO), EGR1 ([1]; transcript ID 8108370, 24 h, up-regulated): 2.571 | Fold-Change (PF-00477736 vs. DMSO), ARRDC3 ([1]; transcript ID 8113073, 24 h, up-regulated): 2.177 | Fold-Change (PF-00477736 vs. DMSO), HIST1H2BJ ([1]; transcript ID 8124484, 24 h, up-regulated): 2.658 | Fold-Change (PF-00477736 vs. DMSO), HIST1H2AJ ([1]; transcript ID 8124518, 24 h, up-regulated): 5.146 | Fold-Change (PF-00477736 vs. DMSO), HIST1H2AM ([1]; transcript ID 8124540, 24 h, up-regulated): 2.131 | Fold-Change (PF-00477736 vs. DMSO), IER3 ([1]; transcript ID 8124848, 24 h, up-regulated): 2.508 | Fold-Change (PF-00477736 vs. DMSO), IER3 ([1]; transcript ID 8178435, 24 h, up-regulated): 2.417 | Fold-Change (PF-00477736 vs. DMSO), IER3 ([1]; transcript ID 8179704, 24 h, up-regulated): 2.508 | upregulated genes ([1]; treated vs DMSO 0.1 %, 24 h, 44 % of 941): 413 genes | down-modulated genes ([1]; treated vs DMSO 0.1 %, 24 h, 56 % of 941): 528 genes | differentially expressed genes (p < 0.05) ([1]; treated vs DMSO 0.1 %, 24 h of drug exposure): 941 genes | c-Jun protein levels [2]: c-Jun protein levels increased in all B-ALL cell lines

From paper PMC4635624, “In vitro and in vivo single-agent efficacy of checkpoint kinase inhibition in acute lymphoblastic leukemia” (Journal of Hematology & Oncology, 2015)
